From PMC7162861, “Synthesis, cytotoxicity, pharmacokinetic profile, binding with DNA and BSA of new imidazo[1,2-a]pyrazine-benzo[d]imidazol-5-yl hybrids” (Scientific Reports, 2020)

Columns and labels:
SR = assay: NCI cytotoxicity screen, Leukemia panel; format: cell-based; conditions: Homo sapiens, single dose 10 µM, negative = lethal, read-out: Percent growth inhibition
Method: (§1) Cytotoxicity was performed at National Cancer Institute (NCI), Bethesda, USA as per their protocols.

RPMI-8226 = assay: NCI cytotoxicity screen, Leukemia panel; format: cell-based; conditions: Homo sapiens; RPMI-8226; single dose 10 µM; negative = lethal; read-out: Percent growth inhibition
Method: as §1

HL-60(TB) = assay: NCI cytotoxicity screen, Leukemia panel; format: cell-based; conditions: Homo sapiens, HL-60, HL-60(TB); single dose 10 µM; negative = lethal; read-out: Percent growth inhibition
Method: as §1

CCRF-CEM = assay: NCI cytotoxicity screen, Leukemia panel; format: cell-based; conditions: Homo sapiens, single dose 10 µM, negative = lethal, read-out: Percent growth inhibition
Method: as §1

MOLT-4 = assay: NCI cytotoxicity screen, Leukemia panel; format: cell-based; conditions: Homo sapiens, MOLT-4, MOLT-4; single dose 10 µM; negative = lethal; read-out: Percent growth inhibition
Method: as §1

K-562 = assay: NCI cytotoxicity screen, Leukemia panel; format: cell-based; conditions: Homo sapiens, K562; K-562; single dose 10 µM; negative = lethal; read-out: Percent growth inhibition
Method: as §1

NCI-522 = assay: NCI cytotoxicity screen, Non-Small Cell Lung Cancer panel; format: cell-based, human; conditions: Homo sapiens; NCI-522; single dose 10 µM; negative = lethal; read-out: Percent growth inhibition
Method: as §1

NCI-H23 = assay: as above; format: cell-based, human; conditions: Homo sapiens, single dose 10 µM, negative = lethal, read-out: Percent growth inhibition
Method: as §1

NCI-H322M = assay: as above; format: cell-based, human; conditions: Homo sapiens, single dose 10 µM, negative = lethal, read-out: Percent growth inhibition
Method: as §1

NCI-H226 = assay: as above; format: cell-based, human; conditions: Homo sapiens, single dose 10 µM, negative = lethal, read-out: Percent growth inhibition
Method: as §1

MALME-3M = assay: NCI cytotoxicity screen, Melanoma panel; format: cell-based; conditions: Homo sapiens; MALME-3M; single dose 10 µM; negative = lethal; read-out: Percent growth inhibition
Method: as §1

UACC-257 = assay: NCI cytotoxicity screen, Melanoma panel; format: cell-based; conditions: Homo sapiens, single dose 10 µM, negative = lethal, read-out: Percent growth inhibition
Method: as §1

SK-MEL-5 = assay: NCI cytotoxicity screen, Melanoma panel; format: cell-based; conditions: Homo sapiens, single dose 10 µM, negative = lethal, read-out: Percent growth inhibition
Method: as §1

SK-MEL-2 = assay: NCI cytotoxicity screen, Melanoma panel; format: cell-based; conditions: Homo sapiens, single dose 10 µM, negative = lethal, read-out: Percent growth inhibition
Method: as §1

SK-MEL-28 = assay: NCI cytotoxicity screen, Melanoma panel; format: cell-based; conditions: Homo sapiens, single dose 10 µM, negative = lethal, read-out: Percent growth inhibition
Method: as §1

MDA-MB-435 = assay: NCI cytotoxicity screen, Melanoma panel; format: cell-based; conditions: Homo sapiens, MDA-MB-435, read-out: Percent growth inhibition
Method: as §1

DU-145 = assay: NCI cytotoxicity screen, Prostate Cancer panel; format: cell-based, human; conditions: Homo sapiens, single dose 10 µM, negative = lethal, read-out: Percent growth inhibition
Method: as §1

PC-3 = assay: NCI cytotoxicity screen, Prostate Cancer panel; format: cell-based, human; conditions: Homo sapiens, single dose 10 µM, negative = lethal, read-out: Percent growth inhibition
Method: as §1

SW-620 = assay: NCI cytotoxicity screen, Colon Cancer panel; format: cell-based, human; conditions: Homo sapiens, single dose 10 µM, negative = lethal, read-out: Percent growth inhibition
Method: as §1

KM12 = assay: NCI cytotoxicity screen, Colon Cancer panel; format: cell-based, human; conditions: Homo sapiens, single dose 10 µM, negative = lethal, read-out: Percent growth inhibition
Method: as §1

HCC-2998 = assay: NCI cytotoxicity screen, Colon Cancer panel; format: cell-based, human; conditions: Homo sapiens; HCC-2998; single dose 10 µM; negative = lethal; read-out: Percent growth inhibition
Method: as §1

BT-549 = assay: NCI cytotoxicity screen, Breast Cancer panel; format: cell-based; conditions: Homo sapiens, single dose 10 µM, negative = lethal, read-out: Percent growth inhibition
Method: as §1

HS 578 T = assay: NCI cytotoxicity screen, Breast Cancer panel; format: cell-based; conditions: Homo sapiens; HS 578T; single dose 10 µM; negative = lethal; read-out: Percent growth inhibition
Method: as §1

T-47D = assay: NCI cytotoxicity screen, Breast Cancer panel; format: cell-based; conditions: Homo sapiens, T47D, T-47D; single dose 10 µM; negative = lethal; read-out: Percent growth inhibition
Method: as §1

MDA-MB-468 = assay: NCI cytotoxicity screen, Breast Cancer panel; format: cell-based; conditions: Homo sapiens, single dose 10 µM, negative = lethal, read-out: Percent growth inhibition
Method: as §1

MDA-MB-231/ATCC = assay: NCI cytotoxicity screen, Breast Cancer panel; format: cell-based; conditions: Homo sapiens, MDA-MB-231, read-out: Percent growth inhibition
Method: as §1

MCF7 = assay: NCI cytotoxicity screen, Breast Cancer panel; format: cell-based; conditions: Homo sapiens, single dose 10 µM, negative = lethal, read-out: Percent growth inhibition
Method: as §1

SN12C = assay: NCI cytotoxicity screen, Renal Cancer panel; format: cell-based; conditions: Homo sapiens, single dose 10 µM, negative = lethal, read-out: Percent growth inhibition
Method: as §1

RXF 393 = assay: NCI cytotoxicity screen, Renal Cancer panel; format: cell-based; conditions: Homo sapiens, single dose 10 µM, negative = lethal, read-out: Percent growth inhibition
Method: as §1

UO-31 = assay: NCI cytotoxicity screen, Renal Cancer panel; format: cell-based; conditions: Homo sapiens, single dose 10 µM, negative = lethal, read-out: Percent growth inhibition
Method: as §1

ACHN = assay: NCI cytotoxicity screen, Renal Cancer panel; format: cell-based; conditions: Homo sapiens, single dose 10 µM, negative = lethal, read-out: Percent growth inhibition
Method: as §1

OVCAR-8 = assay: NCI cytotoxicity screen, Ovarian Cancer panel; format: cell-based; conditions: Homo sapiens, single dose 10 µM, negative = lethal, read-out: Percent growth inhibition
Method: as §1

IGROV1 = assay: NCI cytotoxicity screen, Ovarian Cancer panel; format: cell-based; conditions: Homo sapiens, IGROV-1, single dose 10 µM, negative = lethal, read-out: Percent growth inhibition
Method: as §1

NCI/ADR-RES = assay: NCI cytotoxicity screen, Ovarian Cancer panel; format: cell-based; conditions: Homo sapiens, single dose 10 µM, negative = lethal, read-out: Percent growth inhibition
Method: as §1

SK-OV-3 = assay: NCI cytotoxicity screen, Ovarian Cancer panel; format: cell-based; conditions: Homo sapiens, single dose 10 µM, negative = lethal, read-out: Percent growth inhibition
Method: as §1

OVCAR-4 = assay: NCI cytotoxicity screen, Ovarian Cancer panel; format: cell-based; conditions: Homo sapiens; OVCAR-4; single dose 10 µM; negative = lethal; read-out: Percent growth inhibition
Method: as §1

OVCAR-5 = assay: NCI cytotoxicity screen, Ovarian Cancer panel; format: cell-based; conditions: Homo sapiens, single dose 10 µM, negative = lethal, read-out: Percent growth inhibition
Method: as §1

UACC-62 = assay: NCI cytotoxicity screen, Melanoma panel; format: cell-based, human; conditions: Homo sapiens, single dose 10 µM, negative = lethal, read-out: Percent growth inhibition
Method: as §1

LOX IMVI = assay: NCI cytotoxicity screen, Melanoma panel; format: cell-based, human; conditions: Homo sapiens, single dose 10 µM, negative = lethal, read-out: Percent growth inhibition
Method: as §1

M14 = assay: NCI cytotoxicity screen, Melanoma panel; format: cell-based, human; conditions: Homo sapiens, single dose 10 µM, negative = lethal, read-out: Percent growth inhibition
Method: as §1

[1] = Experimental log P, shake-flask method; format: physicochemical; conditions: n-octanol/phosphate buffer pH 7.4, read-out: Exp. Log P
Method: Partition coefficients or experimental log P values of all synthesized compounds (9–23, 30 and 31) were calculated using the shake-flask method. Log P values were determined using n-octanol and phosphate buffer (pH = 7.4) at 10:1 ratio of volumes. Stock solutions (10^−3 M) of compounds were prepared in DMSO. Glass vials were used to make final solutions i.e. stock solution (250 µL) and phosphate buffer (125 µL). To record the absorbance, wavelength was selected based on λmax of the respective compound. Initial absorbance (Ai) for every compound was noted consuming the stock solution in the buffer phase. Now added n-octanol to every vial and shaken well using a mechanical shaker for 50 minutes. To get separation of both phases, glass vials were centrifuged for 35 min. at 2500 rpm. Then, the layer of octanol was separated from glass vial. The final absorbance (Af) of each compound was recorded by using the buffer layer. The values of P for compounds were determined by the following equation (Eq. 8):8 P=Ai−Af/Af×Vw/Vo

## COc1ccc(-c2cn3ccnc3c(-c3ccc4c(c3)ncn4C3CCCCC3)n2)cc1 [Compound 10, 8-(1-cyclohexyl-1H-benzo[d]imidazol-5-yl)-6-(4-methoxyphenyl)imidazo[1,2-a]pyrazine]
SR
  inhibition at 10 µM: 29.7%
RPMI-8226
  inhibition at 10 µM: 14.7%
HL-60(TB)
  inhibition at 10 µM: 23.3%
CCRF-CEM
  inhibition at 10 µM: 1.19%
MOLT-4
  inhibition at 10 µM: 34.2%
K-562
  inhibition at 10 µM: 29.2%
NCI-522
  inhibition at 10 µM: 18.5%
NCI-H23
  inhibition at 10 µM: < 1%
NCI-H322M
  inhibition at 10 µM: < 1%
NCI-H226
  inhibition at 10 µM: < 1%
MALME-3M
  inhibition at 10 µM: < 1%
UACC-257
  inhibition at 10 µM: < 1%
SK-MEL-5
  inhibition at 10 µM: 5.95%
SK-MEL-2
  inhibition at 10 µM: 9.88%
SK-MEL-28
  inhibition at 10 µM: 4.86%
MDA-MB-435
  inhibition at 10 µM: 6.92%
DU-145
  inhibition at 10 µM: < 1%
PC-3
  inhibition at 10 µM: 22.6%
SW-620
  inhibition at 10 µM: < 1%
KM12
  inhibition at 10 µM: 2.27%
HCC-2998
  inhibition at 10 µM: < 1%
BT-549
  inhibition at 10 µM: 8.55%
HS 578 T
  inhibition at 10 µM: 5.69%
T-47D
  inhibition at 10 µM: 46.2%
MDA-MB-468
  inhibition at 10 µM: < 1%
MDA-MB-231/ATCC
  inhibition at 10 µM: < 1%
MCF7
  inhibition at 10 µM: 19.7%
SN12C
  inhibition at 10 µM: < 1%
RXF 393
  inhibition at 10 µM: < 1%
UO-31
  inhibition at 10 µM: 33.5%
ACHN
  inhibition at 10 µM: 10.9%
OVCAR-8
  inhibition at 10 µM: 7.75%
IGROV1
  inhibition at 10 µM: 5.82%
NCI/ADR-RES
  inhibition at 10 µM: 1.93%
SK-OV-3
  inhibition at 10 µM: 5.37%
OVCAR-4
  inhibition at 10 µM: 7.51%
OVCAR-5
  inhibition at 10 µM: 1.45%
UACC-62
  inhibition at 10 µM: 1.25%
LOX IMVI
  inhibition at 10 µM: 7.86%
M14
  inhibition at 10 µM: 9.96%
other
  melting point: 196 to 199 °C
[1]
  logP: 1.44
